pIC50: −log10 of the molar value. Where two headings read alike, the source gives them in different places.
Tests used:
[1] = target: bee venom phospholipase A2 (Apis mellifera, UniProt P00630); format: biochemical
Calcium^2+ channel = experiment: Calcium Channel (mobilization) Inhibition Assay (Fura-2 fluorescence); format: cell-based
Text: Calcium Channel (mobilization) Inhibition Assay
Polymorphonuclear leukocytes (PMNa), gastric glands, GH3 cells, A431 cells, spleen cells, human keratinocytes corneal cells, etc. were loaded with the Ca^2+ sensitive fluorescent dye, Fura-2. The appropriate cell type was chosen and the potency and efficacy of the anti-inflammatory furanones on calcium mobilization, calcium channel inhibition was quantitated. The methods used for A431 cells listed below are representative of those used for other cells.
A431 cells were detached using a 5-10 min trypsin-EDTA treatment whereas GH3 cells were treated 2 to 5 min with a 1% pancreatin solution. Cells were immediately washed twice in a 20 mM HEPES buffer (pH 7.4) containing 120 mM NaCl, 6 mM KCl, 1 mM MgSO4, 1 mg/ml glucose and 1 mg/ml pyruvate and 1.4 mM calcium (medium A). Approximately 5×10^6 cells were suspended in medium A and incubated with 4 uM fura-2-AM for 15 min at 37° C.
After washing the fura-2 loaded cells, the uptake of dye was checked using fluorescence microscopy and found to be evenly distributed in the cytosol of all cells. Fluorescence was continuously recorded with a Perkin-Elmer LS-5 spectrofluorometer. The excitation wavelength was set at 340 nm and emission wavelength set at 500 nm. The cell suspension was continually stirred, maintained at 37° C. and equilibrated for approximately 5 min before addition of various agents. [Ca^2+ i was calculated using the following formula: [formula]
All fluorescence values were measured relative to a EGTA-quenched signal determined as follows: F was the relative fluorescence measurement of the sample. Fmax was determined by lysing the cells with digitonin (100 ug/ml) in DMSO. After Fmax was determined the pH was adjusted to 8, with NaOH and Ca^2+ chelated with 3 mM EGTA to totally quench the fura-2 signal and obtain Fmin.
When quin-2- was used, cells were incubated with 10 uM quin-2- at 37° C. for 1 hour, washed and then used.

[2] = read-out: IC50, Calcium^2+ Channel Mobilization Inhibition, KCl induced
[3] = read-out: IC50, Calcium^2+ Channel Mobilization Inhibition, TRH induced

Sequence of bee venom phospholipase A2 (P00630 34-167 limits assumed): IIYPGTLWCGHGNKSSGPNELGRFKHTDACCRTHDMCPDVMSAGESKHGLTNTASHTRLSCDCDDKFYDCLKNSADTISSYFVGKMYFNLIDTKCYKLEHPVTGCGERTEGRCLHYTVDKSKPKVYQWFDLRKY

SMILES | IC50, Phospholipase A2 Assay [1] | pIC50 (Calcium^2+ channel; [2]) | pIC50 (Calcium^2+ channel; [3]) | IC50, Calcium^2+ Channel Mobilization Inhibition, TRH induced (Calcium^2+ channel; TRH induced)
CCCCCCCCCCCCC(O)C1=CC(=O)OC1C (single isomer, unassigned) [Compound 3, 4-(1-Hydroxytridecyl)-5-methyl-2(5H)-furanone] | inactive at 3 μM | 6.33 | 6.17 | –
CCCCCCCCCCCCC(OC(C)=O)C1=CC(=O)OC1C (centres unmarked) [Compound 1, 4-(1-Acetoxytridecyl)-5-methyl-2(5H)-furanone] | inactive at 3 μM | 6.44 | 5.19 | –
CCCCCCCCCCCCC(OC(C)=O)C1=C(C)C(=O)OC1 (centres unmarked) [Compound 2, 4-(1-Acetoxytridecyl)-3-methyl-2-furanone] | inactive at 3 μM | 6.60 | 6.00 | –
CCCCCCCCCCCC(=O)OCC1=C(c2ccccc2)C(=O)OC1C (centres unmarked) [Compound 4, 4-Dodecoyloxymethyl-5-methyl-3-phenyl-2(5H)-furanone] | inactive at 3 μM | 5.10 | – | inactive
CC1=C(CC/C(C)=C/CCC2=CCC(C3=CC(=O)OC3O)OC2O)C(C)(C)CCC1 (centres unmarked) [manoalide, reference compound] | – | 6.10 | 6.22 | –

— patent US5451686A, “3 and 5 alkyl and phenyl 4-(hydroxy or acyloxy)-alkyl substituted 2(5H)-furanones as anti-inflammatory agents” (Allergan, Inc., priority 1994, dated 1995)
